In article PMC6915887, “Inhibition of human carboxylesterases by ginsenosides: structure–activity relationships and inhibitory mechanism” (Chinese Medicine, 2019):

Columns and labels:
hCES1A = biological target: T1, hCES1A (Homo sapiens, UniProt P23141); assay: hCES1A inhibition assay (DME hydrolysis in HLM); format: biochemical; details: for IC50: HLM as enzyme source, DME hydrolysis as probe reaction, read-out: IC50 (μM) hCES1A; for inhibition of hCES1A-mediated DME hydrolysis (residual activity screen): HLM, ginsenoside 100 μM, result in words;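 for all read-outs here: Read-out is D-luciferin luminescence formed from DME (3 µM) after 10 min at 37 °C in pH 6.5 PBS, HLM 1 µg/mL, inhibitor preincubated 3 min, oleanic acid as positive control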
T1 construct: tissue Bioreclamation IVT lot no; X008067; host or cells: pooled human liver microsomes (50 donors)
T1 sequence (P23141 18-567): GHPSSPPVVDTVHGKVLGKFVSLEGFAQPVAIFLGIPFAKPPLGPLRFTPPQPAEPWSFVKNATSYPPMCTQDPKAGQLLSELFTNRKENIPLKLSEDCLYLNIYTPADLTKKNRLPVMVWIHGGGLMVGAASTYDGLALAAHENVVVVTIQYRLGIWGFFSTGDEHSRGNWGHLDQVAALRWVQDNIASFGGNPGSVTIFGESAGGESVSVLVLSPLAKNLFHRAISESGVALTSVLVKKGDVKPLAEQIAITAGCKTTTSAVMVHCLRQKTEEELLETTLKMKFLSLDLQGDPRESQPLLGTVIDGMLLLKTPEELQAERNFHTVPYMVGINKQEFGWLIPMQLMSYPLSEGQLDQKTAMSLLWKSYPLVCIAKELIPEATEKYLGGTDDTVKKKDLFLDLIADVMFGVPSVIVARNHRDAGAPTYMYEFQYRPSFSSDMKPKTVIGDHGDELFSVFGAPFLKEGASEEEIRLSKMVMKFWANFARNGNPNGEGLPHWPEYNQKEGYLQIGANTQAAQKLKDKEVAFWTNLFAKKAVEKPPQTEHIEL
Procedure: DME hydrolysis was used as the probe reaction to assay the inhibitory effects of 25 ginsenosides against hCES1A, oleanic acid was used as a positive control of inhibition assays [43]. The incubation system contains 91 μL PBS (0.1 M pH 6.5), 5 μL HLM (1 μg/mL, final concentration) and 2 μL corresponding inhibitor. After pre-incubating the reaction mixture for 3 min at 37 °C, the reaction was started by adding 2 μL DME (3 μM, final concentration) with a total volume of 100 μL, in which the final content of DMSO was limited to 2% (v/v). After incubating for 10 min at 37 °C in a shaking bath, LDR (50 μL, equal volume of the incubation mixture) was added to terminate the reaction. The luminescence signals of D-luciferin (the hydrolytic metabolite of DME) was measured (excitation wavelength 580 nm) by a multi-mode microplate reader (SpectraMax® iD3, Molecular Devices, Austria).
(§1) All inhibition assays were performed in triplicate, nonlinear regression was used to determine the IC50 and Ki values with GraphPad Prism 7.0 software (GraphPad Software, Inc., La Jolla, USA).

hCES2A = biological target: T2, hCES2A (Homo sapiens, UniProt O00748); assay: hCES2A inhibition assay (FD hydrolysis in HLM); format: biochemical; details: for Specificity (hCES1A/hCES2A): ratio of IC50 values in HLM; for inhibition of hCES2A-mediated FD hydrolysis (residual activity screen): HLM, ginsenoside 100 μM, result in words; for IC50: HLM as enzyme source, FD hydrolysis as probe reaction, read-out: IC50 (μM) hCES2A;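 for all read-outs here: HLM at 1 µg/mL in 0.1 M PBS pH 7.4, kinetic read at 37 °C every 30 s over 30 min, triplicate runs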
T2 construct: tissue Bioreclamation IVT lot no; X008067; host or cells: pooled human liver microsomes (50 donors)
T2 sequence (O00748 27-559): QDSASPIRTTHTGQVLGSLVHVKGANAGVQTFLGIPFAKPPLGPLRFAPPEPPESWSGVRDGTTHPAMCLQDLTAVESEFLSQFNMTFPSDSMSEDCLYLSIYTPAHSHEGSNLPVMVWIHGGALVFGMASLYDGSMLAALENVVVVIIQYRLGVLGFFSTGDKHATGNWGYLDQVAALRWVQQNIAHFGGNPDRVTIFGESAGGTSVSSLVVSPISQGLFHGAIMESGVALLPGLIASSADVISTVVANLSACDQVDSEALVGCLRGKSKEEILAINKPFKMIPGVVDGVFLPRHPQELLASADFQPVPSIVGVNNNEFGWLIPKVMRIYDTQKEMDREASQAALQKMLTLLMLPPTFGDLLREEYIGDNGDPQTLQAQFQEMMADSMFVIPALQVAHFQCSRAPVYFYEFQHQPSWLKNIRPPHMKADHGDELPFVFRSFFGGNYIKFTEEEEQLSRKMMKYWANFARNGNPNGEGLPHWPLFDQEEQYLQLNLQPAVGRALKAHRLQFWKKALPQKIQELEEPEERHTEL
Procedure: The incubation system contains 2 μL HLM (1 μg/mL, final concentration), 194 μL PBS (0.1 M pH 7.4) and 2 μL corresponding inhibitor. […] The kinetic parameters were set at 30 reads, with an interval of 30 s (30 min) and shake during 5 s before the first read at 37 °C.
as §1

| SMILES | IC50 (hCES1A) [µM] | Specificity (hCES1A/hCES2A) (hCES2A) | inhibition of hCES2A-mediated FD hydrolysis (residual activity screen) (hCES2A) | IC50 (hCES2A) [µM] | inhibition of hCES1A-mediated DME hydrolysis (residual activity screen) (hCES1A) |
| --- | --- | --- | --- | --- | --- |
| CC(C)=CCC[C@](C)(O[C@@H]1O[C@H](CO)[C@@H](O)[C@H](O)[C@H]1O)[C@H]1CC[C@]2(C)[C@@H]1[C@H](O)C[C@@H]1[C@@]3(C)CC[C@H](O)C(C)(C)[C@@H]3CC[C@]12C [C-K, ginsenoside C-K] | > 100 |  |  |  |  |
| CC(C)=CCC[C@](C)(O[C@@H]1O[C@H](CO)[C@@H](O)[C@H](O)[C@H]1O)[C@H]1CC[C@]2(C)[C@@H]1[C@H](O)C[C@@H]1[C@@]3(C)CC[C@H](O)C(C)(C)[C@@H]3[C@@H](O)C[C@]12C [F1, ginsenoside F1] | > 100 | > 2.70 |  |  |  |
| CC(C)=CCC[C@](C)(O[C@@H]1O[C@H](CO)[C@@H](O)[C@H](O)[C@H]1O)[C@H]1CC[C@]2(C)[C@@H]1[C@H](O)C[C@@H]1[C@@]3(C)CC[C@H](O[C@@H]4O[C@H](CO)[C@@H](O)[C@H](O)[C@H]4O)C(C)(C)[C@@H]3CC[C@]12C [F2] | > 100 |  |  |  |  |
| CC(C)=CC/C=C(/C)C1CC[C@]2(C)C1[C@H](O)CC1[C@@]3(C)CC[C@H](O)C(C)(C)C3[C@@H](O[C@@H]3O[C@H](CO)[C@@H](O)[C@H](O)[C@H]3O[C@@H]3O[C@@H](C)[C@H](O)[C@@H](O)[C@H]3O)C[C@]12C (stereo partly shown) [F4] | > 100 | > 2.22 |  |  |  |
| CC1(C)CCC[C@](C)([C@H]2CC[C@]3(C)[C@@H]2[C@H](O)C[C@@H]2[C@@]4(C)CC[C@H](O)C(C)(C)[C@@H]4CC[C@]23C)O1 [Panaxadiol, panaxadiol] | 6.95 ± 1.29 | 1.84 | strong or moderate inhibition |  |  |
| CC1(C)CCC[C@](C)([C@H]2CC[C@]3(C)[C@@H]2[C@H](O)C[C@@H]2[C@@]4(C)CC[C@H](O)C(C)(C)[C@@H]4[C@@H](O)C[C@]23C)O1 [Panaxatriol, panaxatriol] | 34.9 ± 6.16 |  |  |  |  |
| CC(C)=CCC[C@](C)(O[C@@H]1O[C@H](CO)[C@@H](O)[C@H](O)[C@H]1O)C1CC[C@]2(C)C1[C@H](O)CC1[C@@]3(C)CC[C@H](O)C(C)(C)C3[C@@H](O[C@@H]3O[C@H](CO)[C@@H](O)[C@H](O)[C@H]3O[C@@H]3OC[C@@H](O)[C@H](O)[C@H]3O)C[C@]12C (stereo partly shown) [R1, ginsenoside R1] | > 100 |  |  | > 100 |  |
| CC(C)=CCC[C@](C)(O[C@@H]1O[C@H](CO[C@@H]2O[C@H](CO)[C@@H](O)[C@H](O)[C@H]2O)[C@@H](O)[C@H](O)[C@H]1O)[C@H]1CC[C@]2(C)[C@@H]1[C@H](O)C[C@@H]1[C@@]3(C)CC[C@H](O[C@@H]4O[C@H](CO)[C@@H](O)[C@H](O)[C@H]4O[C@@H]4O[C@H](CO)[C@@H](O)[C@H](O)[C@H]4O)C(C)(C)[C@@H]3CC[C@]12C [Rb1] | > 100 |  | hardly inhibit | > 100 | hardly inhibit |
| CC(C)=CCC[C@](C)(O[C@@H]1O[C@H](CO[C@@H]2OC[C@H](O)[C@H](O)[C@H]2O)[C@@H](O)[C@H](O)[C@H]1O)[C@H]1CC[C@]2(C)[C@@H]1[C@H](O)C[C@@H]1[C@@]3(C)CC[C@H](O[C@@H]4O[C@H](CO)[C@@H](O)[C@H](O)[C@H]4O[C@@H]4O[C@H](CO)[C@@H](O)[C@H](O)[C@H]4O)C(C)(C)[C@@H]3CC[C@]12C [Rb2] | > 100 |  | hardly inhibit | > 100 | hardly inhibit |
| CC(C)=CC/C=C(\C)[C@H]1CC[C@]2(C)[C@@H]1[C@H](O)C[C@@H]1[C@@]3(C)CC[C@H](O)C(C)(C)[C@@H]3[C@@H](O[C@@H]3O[C@H](CO)[C@@H](O)[C@H](O)[C@H]3O)C[C@]12C [Rh4] | > 100 |  |  |  |  |
| CC1(C)CC[C@]2(C(=O)O)CC[C@]3(C)C(=CC[C@@H]4[C@@]5(C)CC[C@H](O)C(C)(C)[C@@H]5CC[C@]43C)[C@@H]2C1 [oleanic acid, reference compound] | 0.1 |  |  |  |  |
